Measured values reported in publication PMC10986598, “Investigating inhibitors of 1-deoxy-D-xylulose 5-phosphate synthase in a mouse model of UTI” (Microbiology Spectrum, 2024).
Converted amounts (≈) assume the structure as drawn. “Also recorded” adds a separate entry of the source.

Legend:
[1] = system: UPEC (CFT073); set-up: method as in PMID 37107054; conditions: cited from earlier work
[2] = In vitro stability in mouse liver homogenate; format: in vitro ADME; conditions: mouse liver homogenate (10%, wt/vol), 10 µM
Procedure: (§1) In vitro stability studies were conducted using our previously published methods naive CD1 mouse plasma or liver homogenate. For liver homogenate stability study, washed mouse liver was diluted 10-fold in 0.1 M potassium phosphate buffer and homogenized using probe sonication. Crude homogenate was then aliquoted to 1 mL, and the homogenate was spiked with 10 µM compound. The plasma stability of the compounds was determined by spiking (10 µM) in 1 mL of plasma and incubating in an orbital shaker at 37°C. All the stability studies were conducted at predetermined times (0, 30, and 60 min), where 100 µL aliquots of the mixture in triplicate were removed and the reaction was quenched by the addition of three times the volume of ice-cold acetonitrile spiked with the internal standard (losartan: 0.5 µM). The samples were vortex-mixed for 30 s and centrifuged at 10,000g for 10 min at 4°C. An amount of 50 µL of the supernatant was diluted with 50 µL of water and transferred to a 250 µL polypropylene vial sealed with a Teflon cap. Compound disappearance was monitored over time using liquid chromatography and tandem mass spectrometry (LC–MS/MS). Paired t-tests were used to determine statistical significance between 0 and 60 min time points.

[3] = system: FVB mice; assay: Acute toxicity dose-escalation study in mice; format: in vivo, mouse; conditions: n = 2
Procedure: Six-week-old female FVB mice were administered BAP by intraperitoneal (IP) injection at doses of 1, 3, 10, 30, 100, and 300 mg/kg. The mice were observed every hour for 6 h post administration for signs of overt toxicity or mortality, or for symptoms related to pain/distress (ruffled fur, discharge from the eyes, dehydration, hunched posture, convulsions, lethargy, reluctance to move, uncoordinated movements, hypothermia, pale ears/feet, labored respiration, and/or cyanosis). Following initial observations, 6 h post administration, mice were then observed daily for signs of toxicity for 18 days. Mice that were administered the highest dose of BAP tested (300 mg/kg) were weighed at days 0, 1, 2, 5, 6, 7, 13, and 18.

[4] = system: E. coli; conditions: cited from earlier work
[5] = system: UPEC strain CFT073; assay: In vivo ascending UTI assay (prophylaxis); set-up: species or system Escherichia coli in C3H/HeN mice; conditions: for median log reduction of bacterial burden vs PBS-treated cohort: bladder, 48 h
Procedure: Female mice were injected subcutaneously in the flank with 2.5 mg of MPA (150 mg/mL, diluted in sterile saline) 7 days prior to inoculation ([60]). Mice were dosed vaginally with 30 µL of sterile saline lavage fluid immediately prior to inoculation. The fluid was collected, placed on a slide, heat fixed, Gram stained, and assessed to determine the estrous cycle stage of each mouse as previously described ([61]).
Six-week-old female C3H/HeN mice were inoculated with UPEC as previously described ([28]). Briefly, UPEC strain CFT073 (ATCC designation: BAA-2503) was streaked on LB agar from a frozen glycerol stock and grown overnight at 37°C. Following overnight incubation, three to five colonies were picked and subcultured into 10 mL of sterile LB, and the culture was incubated statically overnight at 37°C. The culture was diluted 1:1,000 (25 µL of culture into 25 mL of sterile LB) and incubated statically for 24 h at 37°C to promote the growth of bacteria with type-1 pili expression. The resulting 25 mL inoculum was centrifuged at 4,200 × g for 20 min at 4°C. The supernatant was removed, and the cell pellet was resuspended in 10 mL of sterile PBS. The OD600 was adjusted to 1.0 by the addition of PBS to give a cell density of approximately 4 × 10^7 to 1 × 10^8 CFUs per 50 µL, the volume of the inoculum. Cell counts were validated by plating a dilution of the inoculum solution and enumerating following overnight incubation.
Urinary catheters were assembled by threading 30G needles with 0.28 mm inner diameter polyethylene tubing to create a soft tip. Catheter tips were dipped in lubricant immediately before inoculation. During catheterization, urine was aspirated from the bladder prior to inoculation with 50 µL of UPEC inoculum, prepared as described above. Mice were housed with their drug-dosed cohort and dosed intraperitoneally according to each experiment’s dosing regimen as shown in the figures. Dosing regimen for BAP trial 1 (Fig. 7b)consisted of IP administration of BAP (300 mg/kg) 30 min before inoculation; dosing regimen for BAP trial 2 (Fig. 7c) consisted of IP administration of BAP (600 mg/kg) 30 min before inoculation followed with IP doses of BAP (300 mg/kg) at 1 and 3 hpi; dosing regimen for BAP trial 3 and the pro-hpAP trial (Fig. 7d) consisted of IP administration of BAP (600 mg/kg) or pro-hpAP (60 mg/kg) 30 min before inoculation followed with IP doses of BAP (300 mg/kg) or pro-hpAP (30 mg/kg) at 1, 3, and 24 hpi; dosing regimen 4 (Fig. S3) consisted of IP administration of BAP (600 mg/kg) 30 min before inoculation followed with IP doses of BAP (300 mg/kg) at 1, 3, 6, 10, 22, 26, and 30 hpi. Gentamicin diluted in sterile PBS was used as a positive control and was administered to mice at 10 mg/kg IP 30 min prior to inoculation in all experiments.
After 48 h, mice were anesthetized by isoflurane inhalation and sacrificed by cervical dislocation. Bladders were harvested, added to 1 mL sterile PBS, and homogenized with a hand-held homogenizer in a biosafety cabinet. Tissue homogenates were serially-diluted (five 10-fold dilutions), and 100 µL of each dilution was plated onto LB plates and enumerated after a 24 h incubation at 37°C, yielding an effective detection range of 1 × 10^2–150 × 10^8 CFU/mL. In a few cases, bacterial counts fell below the lower limit of detection or above the upper limit of detection and are reported as 0 CFU/mL or conservatively 200 × 10^8 CFU/mL, respectively.

[6] = system: DXPS; set-up: method as in PMID 23326631; conditions: over other ThDP-dependent enzymes; cited from earlier work
[7] = In vitro stability in mouse plasma; format: in vitro ADME
Procedure: as §1

Row | Compound | MIC (growth suppressed >90%) ([1]; UPEC CFT073 in urine) | reduction in UPEC growth ([1]; in urine, at 156 µM BAP) | % remaining in liver homogenate ([2]; at 1 h) | body weight ([3]; single IP dose 300 mg/kg, weighed for 18 days, 300 mg/kg) | overt toxicity or altered behavior ([3]; single IP dose, escalating up to 300 mg/kg, observed 18 days) | MICs ([4]; under nutrient limitation) | protection against UTI ([5]; BAP single 300 mg/kg IP dose 30 min prior to inoculation, 300 mg/kg) | median log reduction of bacterial burden vs PBS-treated cohort ([5]; BAP trial 1: 300 mg/kg IP 30 min before inoculation (1 dose)) | median log reduction of bacterial burden vs PBS-treated cohort ([5]; BAP trial 2: 600 mg/kg IP 30 min before inoculation, 300 mg/kg at 1 and 3 hpi (3 doses)) | median log reduction of bacterial burden vs PBS-treated cohort ([5]; BAP trial 3: 600 mg/kg IP 30 min before inoculation, 300 mg/kg at 1, 3 and 24 hpi (4 doses)) | log reduction of bacterial burden vs PBS control ([5]; regimen 4: BAP 600 mg/kg IP 30 min before inoculation, 300 mg/kg at 1, 3, 6, 10, 22, 26 and 30 hpi) | selectivity for DXPS [6] | % remaining in plasma ([7]; 10 µM, 37°C, at 1 h) | prodrug remaining in liver homogenate ([2]; 30 min incubation) | MIC ([4]; standard nutrient limitation conditions) | median log reduction of bacterial burden vs PBS-treated cohort ([5]; pro-hpAP 60 mg/kg IP 30 min before inoculation, 30 mg/kg at 1, 3 and 24 hpi (4 doses)) | remaining at 1 h, 10 µM ([7]; CD1, 37°C)
1 | CCCCOP(=O)(O)C(C)=O [BAP, butyl acetylphosphonate] | 1250 µM (≈ 225 µg/mL) | ~ 80% | 22% | weight was maintained throughout the observation period; also recorded: no symptoms of distress or change in weight | No overt toxicity or altered behavior was observed; also recorded: no symptoms of distress | low micromolar range | not adequate to provide protection against UPEC infection; also recorded: provides no protection against UTI | no reduction | 1.05 log | 1.14 log | 1.32 log | selective for DXPS over other ThDP-dependent enzymes | 79% | – | – | – | –
2 | C#CCCOP(=O)(O)C(=C)NC(=O)C(CC(C)C)NC(=O)CN (centres unmarked) [pro-hpAP] | – | – | – | – | – | – | – | – | – | – | – | – | – | no prodrug remaining | ~ 20 nM | 1.42 log | 95%
